Patent publication US6525001B1, “Substituted pyrimidine and pyridine herbicides” (Mid-American Commercialization Corporation, priority 1997, dated 2003)

Legend:
Test in all cases: Test B pre-/postemergence
Type in all cases: in vivo
Set-up in all cases: key: 0 is no effect; 10 is complete control
[1] = system: blackgrass (Alopecurus myosuroides)
How it was run: (§1)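 Scored visually 0 (none) to 10 (complete control) against untreated plants after twelve to sixteen greenhouse days. Test chemicals, formulated in surfactant-containing non-phytotoxic solvent, applied to soil after planting and, separately, onto 1- to 4-leaf (2–18 cm) plants.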

[2] = system: momingglory (Ipomoea hederacea)
How it was run: as §1

[3] = system: giant foxtail (Setaria faberii)
How it was run: as §1

[4] = system: velvetleaf (Abutilon theophrasti)
How it was run: as §1

[5] = system: bedstraw (Galium aparine)
How it was run: as §1

[6] = system: crabgrass (Digitaria sanguinalis)
How it was run: as §1

[7] = system: pigweed (Amaranthus retroflexus)
How it was run: as §1

[8] = system: cocklebur (Xanthium strumarium)
How it was run: as §1

corn (Zea mays) = system: corn (Zea mays)
How it was run: as §1

[9] = system: wheat (Triticum aestivum)
How it was run: as §1

rape (Brassica napus) = system: rape (Brassica napus)
How it was run: as §1

soybean (Glycine max) = system: soybean (Glycine max)
How it was run: as §1

[10] = system: sugar beet (Beta vulgaris)
How it was run: as §1

Cc1cnc(-n2ccc(C(F)(F)F)n2)nc1Cc1cccc(C(F)(F)F)c1 [Example 2, 5-methyl-4-[[3-(trifluoromethyl)phenyl]methyl]-2-[3-(trifluoromethyl)-1H-pyrazol-1-yl]pyrimidine]
Plant response rating, Blackgrass ([1]; Rate 62 g/ha, Postemergence): 3
Blackgrass plant response rating ([1]; Rate 62 g/ha, Preemergence): 3
Plant response rating, Blackgrass ([1]; Rate 125 g/ha, Postemergence): 6
Blackgrass plant response rating ([1]; Rate 125 g/ha, Preemergence): 7
Plant response rating, Blackgrass ([1]; Rate 250 g/ha, Postemergence): 7
Plant response rating, Blackgrass ([1]; Rate 250 g/ha, Preemergence): 10
Plant response rating, Blackgrass ([1]; Rate 500 g/ha, Postemergence): 9
Plant response rating, Blackgrass ([1]; Rate 500 g/ha, Preemergence): 10
Plant response rating, Morningglory ([2]; Rate 62 g/ha, Postemergence): 8
Morningglory plant response rating ([2]; Rate 62 g/ha, Preemergence): 7
Plant response rating, Morningglory ([2]; Rate 125 g/ha, Postemergence): 9
Morningglory plant response rating ([2]; Rate 125 g/ha, Preemergence): 9
Plant response rating, Morningglory ([2]; Rate 250 g/ha, Postemergence): 9
Plant response rating, Morningglory ([2]; Rate 250 g/ha, Preemergence): 10
Plant response rating, Morningglory ([2]; Rate 500 g/ha, Postemergence): 9
Plant response rating, Morningglory ([2]; Rate 500 g/ha, Preemergence): 10
Plant response rating, Giant foxtail ([3]; Rate 62 g/ha, Postemergence): 7
Giant foxtail plant response rating ([3]; Rate 62 g/ha, Preemergence): 10
Plant response rating, Giant foxtail ([3]; Rate 125 g/ha, Postemergence): 9
Giant foxtail plant response rating ([3]; Rate 125 g/ha, Preemergence): 10
Plant response rating, Giant foxtail ([3]; Rate 250 g/ha, Postemergence): 9
Plant response rating, Giant foxtail ([3]; Rate 250 g/ha, Preemergence): 10
Plant response rating, Giant foxtail ([3]; Rate 500 g/ha, Postemergence): 10
Plant response rating, Giant foxtail ([3]; Rate 500 g/ha, Preemergence): 10
Plant response rating, Velvetleaf ([4]; Rate 62 g/ha, Postemergence): 8
Velvetleaf plant response rating ([4]; Rate 62 g/ha, Preemergence): 6
Plant response rating, Velvetleaf ([4]; Rate 125 g/ha, Postemergence): 9
Velvetleaf plant response rating ([4]; Rate 125 g/ha, Preemergence): 6
Plant response rating, Velvetleaf ([4]; Rate 250 g/ha, Postemergence): 9
Plant response rating, Velvetleaf ([4]; Rate 250 g/ha, Preemergence): 8
Plant response rating, Velvetleaf ([4]; Rate 500 g/ha, Postemergence): 9
Plant response rating, Velvetleaf ([4]; Rate 500 g/ha, Preemergence): 10
Plant response rating, Bedstraw ([5]; Rate 62 g/ha, Postemergence): 9
Bedstraw plant response rating ([5]; Rate 62 g/ha, Preemergence): 10
Plant response rating, Bedstraw ([5]; Rate 125 g/ha, Postemergence): 9
Bedstraw plant response rating ([5]; Rate 125 g/ha, Preemergence): 10
Plant response rating, Bedstraw ([5]; Rate 250 g/ha, Postemergence): 9
Plant response rating, Bedstraw ([5]; Rate 250 g/ha, Preemergence): 10
Plant response rating, Bedstraw ([5]; Rate 500 g/ha, Postemergence): 9
Plant response rating, Bedstraw ([5]; Rate 500 g/ha, Preemergence): 10
Plant response rating, Crabgrass ([6]; Rate 62 g/ha, Postemergence): 8
Crabgrass plant response rating ([6]; Rate 62 g/ha, Preemergence): 9
Plant response rating, Crabgrass ([6]; Rate 125 g/ha, Postemergence): 9
Crabgrass plant response rating ([6]; Rate 125 g/ha, Preemergence): 10
Plant response rating, Crabgrass ([6]; Rate 250 g/ha, Postemergence): 9
Plant response rating, Crabgrass ([6]; Rate 250 g/ha, Preemergence): 10
Plant response rating, Crabgrass ([6]; Rate 500 g/ha, Postemergence): 10
Plant response rating, Crabgrass ([6]; Rate 500 g/ha, Preemergence): 10
Plant response rating, Redroot pigweed ([7]; Rate 62 g/ha, Postemergence): 7
Redroot pigweed plant response rating ([7]; Rate 62 g/ha, Preemergence): 10
Plant response rating, Redroot pigweed ([7]; Rate 125 g/ha, Postemergence): 9
Redroot pigweed plant response rating ([7]; Rate 125 g/ha, Preemergence): 10
Plant response rating, Redroot pigweed ([7]; Rate 250 g/ha, Postemergence): 9
Plant response rating, Redroot pigweed ([7]; Rate 250 g/ha, Preemergence): 10
Plant response rating, Redroot pigweed ([7]; Rate 500 g/ha, Postemergence): 9
Plant response rating, Redroot pigweed ([7]; Rate 500 g/ha, Preemergence): 10
Plant response rating, Cocklebur ([8]; Rate 62 g/ha, Postemergence): 8
Cocklebur plant response rating ([8]; Rate 62 g/ha, Preemergence): 0
Plant response rating, Cocklebur ([8]; Rate 125 g/ha, Postemergence): 8
Cocklebur plant response rating ([8]; Rate 125 g/ha, Preemergence): 1
Plant response rating, Cocklebur ([8]; Rate 250 g/ha, Postemergence): 8
Plant response rating, Cocklebur ([8]; Rate 250 g/ha, Preemergence): 1
Plant response rating, Cocklebur ([8]; Rate 500 g/ha, Postemergence): 9
Plant response rating, Cocklebur ([8]; Rate 500 g/ha, Preemergence): 3
Plant response rating, Corn (corn (Zea mays); Rate 62 g/ha, Postemergence): 2
Corn plant response rating (corn (Zea mays); Rate 62 g/ha, Preemergence): 0
Plant response rating, Corn (corn (Zea mays); Rate 125 g/ha, Postemergence): 4
Corn plant response rating (corn (Zea mays); Rate 125 g/ha, Preemergence): 1
Plant response rating, Corn (corn (Zea mays); Rate 250 g/ha, Postemergence): 6
Plant response rating, Corn (corn (Zea mays); Rate 250 g/ha, Preemergence): 1
Plant response rating, Corn (corn (Zea mays); Rate 500 g/ha, Postemergence): 7
Plant response rating, Corn (corn (Zea mays); Rate 500 g/ha, Preemergence): 2
Plant response rating, Wheat ([9]; Rate 62 g/ha, Postemergence): 2
Wheat plant response rating ([9]; Rate 62 g/ha, Preemergence): 1
Plant response rating, Wheat ([9]; Rate 125 g/ha, Postemergence): 2
Wheat plant response rating ([9]; Rate 125 g/ha, Preemergence): 2
Plant response rating, Wheat ([9]; Rate 250 g/ha, Postemergence): 3
Plant response rating, Wheat ([9]; Rate 250 g/ha, Preemergence): 3
Plant response rating, Wheat ([9]; Rate 500 g/ha, Postemergence): 5
Plant response rating, Wheat ([9]; Rate 500 g/ha, Preemergence): 3
Plant response rating, Rape (rape (Brassica napus); Rate 62 g/ha, Postemergence): 9
Rape plant response rating (rape (Brassica napus); Rate 62 g/ha, Preemergence): 10
Plant response rating, Rape (rape (Brassica napus); Rate 125 g/ha, Postemergence): 9
Rape plant response rating (rape (Brassica napus); Rate 125 g/ha, Preemergence): 10
Plant response rating, Rape (rape (Brassica napus); Rate 250 g/ha, Postemergence): 9
Plant response rating, Rape (rape (Brassica napus); Rate 250 g/ha, Preemergence): 10
Plant response rating, Rape (rape (Brassica napus); Rate 500 g/ha, Postemergence): 10
Plant response rating, Rape (rape (Brassica napus); Rate 500 g/ha, Preemergence): 10
Plant response rating, Soybean (soybean (Glycine max); Rate 62 g/ha, Postemergence): 6
Soybean plant response rating (soybean (Glycine max); Rate 62 g/ha, Preemergence): 0
Plant response rating, Soybean (soybean (Glycine max); Rate 125 g/ha, Postemergence): 7
Soybean plant response rating (soybean (Glycine max); Rate 125 g/ha, Preemergence): 1
Plant response rating, Soybean (soybean (Glycine max); Rate 250 g/ha, Postemergence): 8
Plant response rating, Soybean (soybean (Glycine max); Rate 250 g/ha, Preemergence): 2
Plant response rating, Soybean (soybean (Glycine max); Rate 500 g/ha, Postemergence): 8
Plant response rating, Soybean (soybean (Glycine max); Rate 500 g/ha, Preemergence): 5
Plant response rating, Sugarbeets ([10]; Rate 62 g/ha, Postemergence): 9
Sugarbeets plant response rating ([10]; Rate 62 g/ha, Preemergence): 10
Plant response rating, Sugarbeets ([10]; Rate 125 g/ha, Postemergence): 9
Sugarbeets plant response rating ([10]; Rate 125 g/ha, Preemergence): 10
Plant response rating, Sugarbeets ([10]; Rate 250 g/ha, Postemergence): 9
Plant response rating, Sugarbeets ([10]; Rate 250 g/ha, Preemergence): 10
Plant response rating, Sugarbeets ([10]; Rate 500 g/ha, Postemergence): 9
Plant response rating, Sugarbeets ([10]; Rate 500 g/ha, Preemergence): 10
